We go through 9 substances from patent publication US9518089B2, “Metallothionein-derived peptide fragments” (University of Tasmania, priority 2006, dated 2016).

One experiment concerns the target MT2 protein (from Sigma). In words: Surface plasmon resonance (SPR) analysis of peptide binding to immobilized MT2. Conditions: for pKd / ka / kd: 25° C., PBS pH 7.4, immobilized MT2; for binding to MT2 protein immobilized on a sensor chip: difference to blank chip. As to the method:
FIG. 12 Binding of the MTAcc peptide to MT studied by means of SPR analysis. Approximately 2000 resonance units (RU) of the MT2 protein (Sigma) were immobilized on the sensor chip. The binding is given as the response difference between the binding to the sensor chip with the immobilized MT2 and a blank sensor chip (unspecific binding). The peptide was injected into the sensor chip at a concentration of 0.87 μM. The experiment was repeated four times. FIG. 13 Binding of the MTBcc peptide to MT studied by means of SPR analysis. Approximately 2000 resonance units (RU) of the MT2 protein (Sigma) were immobilized on the sensor chip. The binding is given as the response difference between the binding to the sensor chip with the immobilized MT2 and a blank sensor chip (unspecific binding). The peptide was injected into the sensor chip at a concentration of 8.32 μM. The experiment was repeated four times. FIG. 14 Binding of the MTAn peptide to MT studied by means of SPR analysis. Approximately 2000 resonance units (RU) of the MT2 protein (Sigma) were immobilized on the sensor chip. The binding is given as the response difference between the binding to the sensor chip with the immobilized MT2 and a blank sensor chip (unspecific binding). The peptide was injected into the sensor chip at a concentration of 1.7 μM. Analysis of binding was performed employing a BIAcoreX instrument (Biosensor AB, Uppsala, Sweden) at 25° C. using 10 mM pH 7.4 sodium phosphate containing 150 mM NaCl as running buffer (phosphate-buffered saline, PBS). The flow-rate was 5 μl/min. Data were analysed by non-linear curve-fitting using the manufacturer's software. The MT2 protein (from Sigma) was immobilized on a sensor chip CM5 using an amine coupling kit (Biosensor AB) as follows: the chip was activated by 20 μl activation solution; the protein was immobilized using 12 μl 20 μg/ml protein in 10 mM sodium phosphate buffer pH 6.0; the chip was blocked by 35 μl blocking solution. Various peptides at the indicated concentrations were injected into the sensor chip. The curve corresponding to the difference between binding to MT2 and a blank chip was used for analysis.

Experiment [1] concerns cerebellar granule neurons (CGN). Kind of experiment: Neuronal differentiation (neurite outgrowth) in primary CGN cultures. Format: cell-based, rat. Particulars: CGN grown 24 h in presence of peptide; FIGS. 1-5. The method, then: Primary cultures of cerebellar granule neurons (CGN) from seven days old rats were plated at a density of 10,000 cells/cm^2 in eight-well permanox chamber slides and left to differentiate for 24 hours in the presence of various concentrations of peptide. Cells were fixated and immuno-stained for GAP-43 to visualise only neurons. CGN cultures were fixed in 4% paraformaldehyde followed by blocking with 1% BSA and then incubateded with polyclonal rabbit antibodies against rat GAP-43 (Chemicon, AH Diagnostics, Aarhus, Denmark) (1:1000 dilution with 1% BSA) followed by incubation with secondary Alexa Fluor® 488 goat anti-rabbit antibodies (Molecular Probes, Eugene, Oreg., USA) (1:700 dilution with 1% BSA. Neurite length was estimated by means of a stereological approach (Rønn et al., 2000). Results are expressed as percentage neurite outgrowth±SEM, with the untreated controls set at 100%. Statistics are performed with a Student's paired t-test. *=p<0.05, **=p<0.01, ***=p<0.001. If not specifically indicated, four experiments were performed for each condition. 2.

Experiment [2] shares this test system. Kind of experiment: Cell survival assay, low-potassium induced apoptosis of CGN. Format: cell-based, rat. Conditions: apoptosis induced by 5 mM KCl medium, 48 h; FIGS. 6-9. The method, then: Primary CGN cultures from seven days old rats were plated at a density of 100,000 cells/cm^2 in eight-well permanox chamber slides coated with poly-D-Lysine and grown in a medium supplemented with 40 mM KCl. After 24 hours cytosine-β-D-arabinofuranoside was added to the culture to inhibit proliferation of non-neuronal cells. Neurons were left to differentiate for further 6 days in vitro, before apoptosis was induced by shifting cells into a starving medium containing either 5 mM KCl alone (negative control), 40 mM KCl (positive control) or 5 mM KCl plus various concentrations of peptide. 48 hours after apoptosis induction cells were fixated and stained with Hoechst 33258. Neuronal viability was estimated by comparing the amount of live neurons with the total number of neurons based on nuclear morphology. Results (see FIGS. 6-9) from at least four independent experiments are expressed as percentage survival±SEM, with the negative control set at 100%. Statistics are performed with a Student's paired t-test. *=p<0.05, **=p<0.01, ***=p<0.001. CGN from 7-day-old rats were induced to differentiate for 7 days in a medium with a high potassium concentration after which the neurons were grown for two days in a low potassium medium either in the absence or presence of IGF-1 (positive control), or the MT-derived peptides.

Experiment [3] shares this test system. Kind of experiment: TUNEL assay (DNA fragmentation) in CGN. Conditions: 24 h after apoptosis induction; FIG. 10. Format: cell-based, rat. As to the method:
Primary cultures of seven days old rats were plated, cultured and induced to under-go apoptosis as described above for neuronal survival, however cells were fixated 24 hour after apoptosis induction. By using the Fluorescien FragEL DNA fragmentation Kit, which label free DNA ends with a green fluorescent colour, the amount of neurons undergoing DNA fragmentation can be estimated and compared to the total amount of cells, which are stained with propidium idodide. Results (see FIG. 10) from at least four independent experiments are expressed as percentage TUNEL positive cells±SEM, with the negative control set at 100%. Statistics are performed with a Student's paired t-test. *=p<0.05, **=p<0.01, ***=p<0.001.

For experiment [4], the system named is focal brain injury on the right fronto-parietal cortex. In words: Neuronal rescue and tissue repair in vivo after focal brain injury (dry-ice lesion). More on the design: species or system rat. Particulars: rats, tetrameric form of peptide s.c. 10 mg/kg/injection, FIG. 11. The method, then:
A focal brain injury on the right fronto-parietal cortex was made by applying a piece of dry-ice (−78° C.) directly onto the skull for 30 seconds in mice and 60 seconds in rats, as previously described in detail (Penkowa and Moos, 1995). The rats were treated s.c. with the tetrameric form of the MTAcc peptide ([…]) one day before lesion and one and two days after the lesion (10 mg/kg bodyweight/injection). Three days after the lesion animals were fixed by transcardial perfusion with paraformaldehyde. Histochemistry and immunohistochemistry (IHC) were performed on sections cut from organs taken from fixated animals. For immunohistochemical investigation, brains were dissected and postfixed in Zamboni's fixative for 2-3 hours, dehydraded in graded alcohol followed by xylol and subsequently embedded in paraffin before being cut in 3 μm frontal sections throughout the entire area of the lesion. Terminal deoxynucleotidyl transferase (TdT)-mediated deoxyuridine triphosphate (dUTP)-biotin nick end labeling (TUNEL) was performed using the Fragment End Labeling (FragEL™) Detection Kit (Calbiochem, USA, code QIA33). The FragEL kit contains all the materials used below and each step was performed according to the manufacturer's recommendations. Sections were also immunostained for markers of oxidative stress such as peroxynitrite-induced nitration of tyrosine residues (NITT) and malondialdehyde (MDA) andfor markers of inflammation such as interleukin (IL)-1, IL-12 and tumor necrosis factor (TNF) α, as described by Penkowa et al. (2000).

pKd: −log10 of the molar value.

As to KKSSCSCSPVGSAK [MTAn], on MT2 protein (from Sigma), the pKd was 6.44, the ka is 1.57 ± 0.05 × 10^4 M^−1 s^−1, the kd is on record as 5.74 ± 0.19 × 10^−3 s^−1 and the “binding to MT2 protein immobilized on a sensor chip” value (“binding to MT2 protein immobilized” for short) is on record as “specifically bind”.
With “SAGSSKSKESKSTS (listed as Homo sapiens) [MTBc]”, in experiment [1], the “neurite outgrowth / differentiation of cerebellar primary neurons” value (“neurite outgrowth / differentiation” for short) is recorded as “stimulated differentiation of cerebellar primary neurons”. Further, the “neuronal survival of CGN” value in experiment [2] was “promoted survival of CGN in a dose dependent manner”.
In the case of “MDPNSSSAAGDSST (listed as Homo sapiens) [MTBn]”, in experiment [1], the “neurite outgrowth / differentiation” value was “no neuritogenic activity”. For the same substance, the “neuronal survival of CGN” value in experiment [2] is “promoted survival of CGN in a dose dependent manner”.
Taken in the same sequence, the figures for “MDPNCSCAAGDSST (listed as Homo sapiens) [MTBnc]” were “stimulated differentiation of cerebellar primary neurons” and “promoted survival of CGN in a dose dependent manner”.
For “AQGSISKGASDKSS (listed as Homo sapiens) [MTAc]”, the “neurite outgrowth / differentiation” value in experiment [1] is recorded as “stimulated differentiation of cerebellar primary neurons”. The “neuronal survival of CGN” value in experiment [2] is reported as “promoted survival of CGN in a dose dependent manner”.
Regarding “IGF-1: positive control in the CGN survival assay [reference compound]”, the “neuronal survival of CGN” value in experiment [2] was “could be prevented”.
Regarding SAGSCKCKESKSTS [MTBcc], the “neurite outgrowth / differentiation” value in experiment [1] is listed as “stimulated differentiation of cerebellar primary neurons”. Also, in experiment [2], the “neuronal survival of CGN” value is listed as “promoted survival of CGN in a dose dependent manner”. Further, the “number of apoptotic neurons (TUNEL positive cells, DNA fragmentation)” value in experiment [3] is “strongly reduced the number of apoptotic neurons”. Further, in the experiment on MT2 protein (from Sigma), the ka is 2.83 ± 0.93 × 10^3 M^−1 s^−1, the kd is recorded as 5.01 ± 1.75 × 10^−4 s^−1 and the “binding to MT2 protein immobilized” value is given as “specifically bind”.
For the substance “KGGEAAEAEAEK (listed as Homo sapiens) [MT31p]”, the “neurite outgrowth / differentiation” value in experiment [1] is recorded as “no neuritogenic activity”. The “neuronal survival of CGN” value in experiment [2] is on record as “promoted survival of CGN in a dose dependent manner”.
As to “AQGSICKGASDKSS [MTAcc, tetrameric form used in vivo]”, the “neurite outgrowth / differentiation” value in experiment [1] was “stimulated differentiation of cerebellar primary neurons”. For the same substance, in experiment [2], the “neuronal survival of CGN” value is reported as “promoted survival of CGN in a dose dependent manner”. In experiment [3], the “number of apoptotic neurons (TUNEL positive cells, DNA fragmentation)” value is on record as “strongly reduced the number of apoptotic neurons”. For the same substance, the “number of apoptotic cells (TUNEL staining)” value in experiment [4] (day -1, +1, +2, analysed 3 days after lesion) is “dramatic decrease of the number of apoptotic cell”. Moreover, in experiment [4] (3 days after lesion), the “inflammatory response to the lesion (IL-1, IL-12 and TNFα immunostaining)” value was “inhibition of the inflammatory response to the lesion”; the “oxidative stress (NITT and MDA immunostaining)” value is recorded as “inhibition of oxidative stress”. In addition, on MT2 protein (from Sigma), the negative-log Kd (pKd) was 7.05, the ka was 4.54 ± 0.21 × 10^3 M^−1 s^−1, the kd is given as 4.00 ± 0.27 × 10^−4 s^−1 and the “binding to MT2 protein immobilized” value was “specifically bind”.
